Data on 102 molecules can be found in PubChem BioAssay AID1996.

In brackets after ≈: the same amount, converted by molar mass.

For the data set the following is noted: buffer; pH 7.4; 200.0 µM.
Molecule `CN1CCN(C(=S)NC(CC(=O)c2ccccc2)c2ccccc2)CC1` (configuration not stated) returned a solubility (kinetic) of 43.2 µg/mL (≈ 118 µM). With `O=S(=O)(c1ccc(F)c(F)c1F)N1CCN(c2ncnc3sccc23)CC1`, the solubility (kinetic) was found to be 2.5 µg/mL (≈ 6.03 µM). The result for `Cc1ccc(NC(=O)NC(=O)CN2CCC(C(N)=O)CC2)c(C)c1` reads more than 49.9 µg/mL; that for `O=C(c1ccccn1)N1CCN(S(=O)(=O)c2ccccc2)CC1`, more than 49.7 µg/mL; that for `CCCCOc1ccc(C2(C)NC(=O)NC2=O)cc1` (configuration not stated), 31.2 µg/mL (≈ 119 µM). The molecule `CC1CCN(C(=O)c2ccc(N3CCOCC3)c([N+](=O)[O-])c2)CC1` registered a kinetic solubility of more than 50 µg/mL. Molecule `Cc1cccc(OCC(=O)Nc2ccncc2)c1` returned a solubility (kinetic) of more than 36.3 µg/mL. Next, `CCOC(=O)CC(=O)NC(CC(=O)OC)c1ccc(Br)cc1` (configuration not stated): 45.7 µg/mL (≈ 123 µM). The result for `Cc1ccc(NC(=O)c2nsc(Cl)c2Cl)cc1` reads less than 0.3 µg/mL; that for `CCn1c(CCNC(=O)c2ccco2)nc2ccccc21`, 40.5 µg/mL (≈ 143 µM); that for `COc1ccc(CNc2cc(C)nc3ccc(OC)cc23)cc1`, 37.8 µg/mL (≈ 123 µM). Next, `CC(c1ccccc1)n1c(CO)nc2ccccc21` (configuration not stated): 35.2 µg/mL (≈ 140 µM). The molecule `Cc1ccc(NC(=S)NCCSc2ccc(Cl)cc2)cc1` gave a solubility (kinetic) of less than 0.4 µg/mL. Next, `CCNC(=O)NC(=O)CSc1ccc(S(=O)(=O)N2CCOCC2)cn1`: 56.2 µg/mL (≈ 145 µM); `CCOC(=O)c1sc(=S)n(-c2ccc(OC)cc2)c1N`: 2 µg/mL (≈ 6.44 µM).

`NS(=O)(=O)c1ccc(NC(=S)N2CCCC2)cc1`: the solubility (kinetic) is more than 42.8 µg/mL. `CC(C)CNC(=O)COCc1cc(-c2ccc3c(c2)OCO3)on1` showed a solubility (kinetic) of more than 49.9 µg/mL. The result for `COC(=O)Nc1nn(-c2ccc(OC)cc2)c(=O)c(C#N)c1C` reads more than 47.1 µg/mL. The result for `CCOc1ccc(S(=O)(=O)N2CCN(c3ccccn3)CC2)cc1` reads 1.6 µg/mL (≈ 4.61 µM); that for `O=C(c1cc(-c2ccccc2O)on1)N1CCCCCC1`, 2.6 µg/mL (≈ 9.08 µM).

As for `CCN1C(=O)c2cccc3c(S(=O)(=O)Nc4ccccc4O)ccc1c23`, the kinetic solubility is 0.5 µg/mL (≈ 1.36 µM). Turning to `CCOc1ccc(S(=O)(=O)NCCC(=O)N2CCC(Cc3ccccc3)CC2)cc1`, the solubility (kinetic) was found to be 12.8 µg/mL (≈ 29.7 µM). Next, `O=[N+]([O-])c1ccc(NC(=S)N2CCCC2)cc1`: 8.2 µg/mL (≈ 32.6 µM).

In turn, `COc1ccc(C(=O)COc2ccc(C)cc2NC(C)=O)cc1` came in with a solubility (kinetic) of 36.7 µg/mL (≈ 117 µM).

In turn, `COc1ccc(N2C(=O)CC(c3ccccc3)C2=O)cc1` (configuration not stated) displayed a solubility (kinetic) of 11.2 µg/mL (≈ 39.8 µM). Next, `Nc1nc(Nc2ccc(Cl)cc2)c(NC=O)c(=O)[nH]1`: more than 42 µg/mL; `NS(=O)(=O)c1ccc(CCNC(=O)c2ccc(Cl)c(S(=O)(=O)NCc3ccco3)c2)cc1`: more than 74.7 µg/mL. The molecule `COc1ccc2nc(SC)cc(C)c2c1` showed a solubility (kinetic) of 3.7 µg/mL (≈ 16.9 µM). The result for `CCn1c(SCC(=O)N2CCCC2)nc2c(c1=O)SCC2` reads more than 48.8 µg/mL; that for `Cc1cc(C)cc(OCCn2ccnc2)c1`, 29.3 µg/mL (≈ 135 µM); that for `CCCCN(C)Cc1c(C)[nH]c2c(ccc3ccccc32)c1=O`, more than 46.3 µg/mL. Next, `COc1ccccc1CNC(=O)CS(=O)(=O)c1ccc(C)cc1`: more than 50 µg/mL; `CC(OC(=O)c1ccco1)C(=O)Nc1ccc(Cl)cn1` (configuration not stated): more than 44.2 µg/mL; `CC(C)C(C(=O)Nc1ccncc1)c1ccc(Cl)cc1` (configuration not stated): more than 43.3 µg/mL. The result for `Cl.O=C(NC1CCN(Cc2ccccc2)CC1)c1cccc(S(=O)(=O)Nc2ccc(SC(F)F)cc2)c1` reads 31.7 µg/mL; that for `CN(C)C(=O)Oc1cccc(NC(=O)c2ccccc2C(F)(F)F)c1`, 37.9 µg/mL (≈ 108 µM). In turn, `O=C(NCCCSc1ccccc1)c1cc(Cl)ccc1O` yielded a solubility (kinetic) of 0.9 µg/mL (≈ 2.8 µM).

Consider `COc1cccc(NCCC(=O)c2cccc([N+](=O)[O-])c2)c1`, for which the kinetic solubility was found to be 12.4 µg/mL (≈ 41.3 µM). The molecule `N=c1oc2ccccc2cc1C(=O)Nc1ccccc1` yielded a solubility (kinetic) of 0.6 µg/mL (≈ 2.27 µM).

Take `CN=C(Nc1ccc(C(=O)OC)s1)c1ccccc1`: the kinetic solubility came out at 29.6 µg/mL (≈ 108 µM). In the case of `COc1cc(C(=O)Nc2ccc(C)cc2)c2ccccc2n1`, the solubility (kinetic) was less than 0.3 µg/mL. On to `CN(Cc1nc2ccccc2c(=O)[nH]1)C(=O)C1CC(=O)N(c2cccc3ccccc23)C1` (configuration not stated), for which the solubility (kinetic) is more than 64 µg/mL. Next, `O=C(CSCc1ccccc1Br)Nc1ccccc1`: 29.5 µg/mL (≈ 87.7 µM); `CCOC(=O)C1CCCN(CCSc2ccc(C)cc2)C1.Cl` (configuration not stated): 41.3 µg/mL; `Cl.N#C/C(=C\c1ccccc1)C(=O)NCCN1CCOCC1`: more than 48.3 µg/mL.

Consider `COc1ccc(CNC(=O)COC(=O)c2cccn2C)cc1`, for which the solubility (kinetic) is more than 45.3 µg/mL. In turn, `CC(NCCC(c1ccccc1)c1ccccc1)c1ccccc1.Cl` (configuration not stated) yielded a kinetic solubility of more than 52.8 µg/mL. The molecule `COc1ccc(NC(=O)Cn2c([N+](=O)[O-])cnc2C)cc1Cl` yielded a kinetic solubility of 2 µg/mL (≈ 6.16 µM).

As to `COc1ccccc1N1CCN(CCN2C(=O)C3CCCCN3C2=O)CC1` (configuration not stated), the kinetic solubility turned out to be 40.8 µg/mL (≈ 110 µM). Next, `CC(=O)Nc1ccc(OCCC[n+]2cccc(C(=O)[O-])c2)cc1`: 39.6 µg/mL (≈ 126 µM); `COc1ccc(C=O)cc1Cn1c(C)cc(C)c(C#N)c1=O`: 0.6 µg/mL (≈ 2.02 µM); `Cc1onc(-c2ccccc2)c1C(O)c1ccc(F)cc1` (configuration not stated): more than 42.5 µg/mL. In turn, `Nc1nc2ncc(C(=O)c3cc(F)ccc3O)cc2s1` displayed a kinetic solubility of 7 µg/mL (≈ 24.2 µM). The result for `Cc1c(C(=O)N2CCC[C@H]2CO)oc2c(F)cccc12` reads 37 µg/mL (≈ 133 µM); that for `CC(C)C[C@H](N)c1nnc(SCc2ccc(Cl)cc2)o1.Cl`, more than 52.2 µg/mL. Next, `CCOC(=O)C1CCN(C(=O)COC(=O)/C=C/c2ccccc2)CC1`: more than 51.8 µg/mL; `CCOc1ccccc1NC(=S)NC1CC2CCC1C2` (configuration not stated): 5 µg/mL (≈ 17.2 µM); `Cc1nc2ccc([N+](=O)[O-])cc2nc1C`: more than 30.5 µg/mL. With `O=C(COC(=O)c1ccco1)NC12CC3CC(CC(C3)C1)C2`, the solubility (kinetic) came to 2.2 µg/mL (≈ 7.25 µM).

As to `Cn1cccc1C(=O)OCC(=O)NCCCc1ccccc1`, the solubility (kinetic) was more than 45.1 µg/mL.

In turn, `Cc1ccc(-c2csc(NC3OC(=O)c4ccccc43)n2)cc1` (configuration not stated) gave a solubility (kinetic) of 0.4 µg/mL (≈ 1.24 µM). The result for `CC(OC(=O)c1ccc(C#N)cc1)C(=O)Nc1ccc(Cl)cn1` (configuration not stated) reads 5.4 µg/mL (≈ 16.4 µM); that for `COc1ccc(N2CCN(C(=O)NC(=O)c3ccccc3)CC2)cc1`, 38.7 µg/mL (≈ 114 µM); that for `O=Cc1cccn1-c1ccc2ccccc2c1`, 15 µg/mL (≈ 67.8 µM). The result for `Cc1ccc(N=C2c3ccccc3C(=O)C2[N+](=O)[O-])cc1C` (configuration not stated) reads 8.8 µg/mL (≈ 29.9 µM); that for `N#Cc1c(N2CCSCC2)nsc1-c1ccccc1Cl`, 3.4 µg/mL (≈ 10.6 µM). The result for `O=C(/C=C/c1ccc([N+](=O)[O-])s1)N1CCCC1` reads more than 37.8 µg/mL; that for `COc1cc(NC(=O)CC(C)n2ccnc2)cc(OC)c1` (configuration not stated), more than 43.4 µg/mL; that for `CCOc1ccc(S(=O)(=O)NCc2ccc3c(c2)OCO3)cc1C`, 24.3 µg/mL (≈ 69.5 µM). The molecule `Cc1ccc(CNS(=O)(=O)c2c(N)n(C)c(=O)n(C)c2=O)cc1` registered a solubility (kinetic) of 41.3 µg/mL (≈ 122 µM). The result for `Cc1nc(/N=C(\N)NC(=O)NC2CCCCC2)nc2ccccc12` reads 12.7 µg/mL (≈ 38.9 µM); that for `COCC(C)NC(=S)N1CCN(c2ccccc2Cl)CC1` (configuration not stated), 48.5 µg/mL (≈ 148 µM). Next, `CC(C)c1ccc(NC(=O)CN2C(=O)NC3(CCCC3)C2=O)cc1`: more than 49.4 µg/mL. Consider `Cc1ccc(NC(=O)CN(C)C(=O)C2CC(=O)N(Cc3ccccc3)C2)cc1` (configuration not stated), for which the kinetic solubility came out at 44.7 µg/mL (≈ 118 µM).

`COc1ccccc1NS(=O)(=O)c1cc(NC(=O)c2ccccc2[N+](=O)[O-])ccc1N1CCOCC1` came in with a solubility (kinetic) of 4.4 µg/mL (≈ 8.58 µM). For `COc1ccc(C(=O)OCC(=O)N2C(C)CCCC2C)cc1S(=O)(=O)N1CCOCC1` (configuration not stated), the kinetic solubility is more than 68.2 µg/mL. Next, `CN(C)/C=C/C(=O)c1ccc(Oc2ncccn2)cc1`: more than 40.4 µg/mL. As for `COc1ccc(OC)c(N2C(=O)CC(NNC(=O)c3ccc4c(c3)OCO4)C2=O)c1` (configuration not stated), the solubility (kinetic) is more than 62 µg/mL. Consider `C=CCN1C(=O)/C(=C/c2cc(C)n(-c3cccnc3)c2C)C(=O)NC1=S`, for which the kinetic solubility turned out to be 12.9 µg/mL (≈ 35.2 µM). Next, `COc1ccc(/C(C)=N/N2CCOCC2)c(O)c1`: more than 37.5 µg/mL; `Cc1cc(C)c(OCCN2CCCC2)c(Cl)c1`: 27.8 µg/mL (≈ 110 µM).

`Cc1ccc(OCC(=O)NCCNC(=O)c2ccncc2)cc1C` registered a solubility (kinetic) of more than 49.1 µg/mL. Next, `CCCCN(C)CCNC(=O)C(=O)c1c(C)[nH]c2ccccc12`: more than 47.3 µg/mL; `CC(=O)OCC(=O)Nc1c(C)cccc1C`: more than 33.2 µg/mL; `Cc1ccc(NC(=O)N2CCC(c3ccccc3)C2)cc1C` (configuration not stated): 2.6 µg/mL (≈ 8.83 µM). The result for `O=Cc1cnc2ccccc2c1-c1ccccc1` reads 27.8 µg/mL (≈ 119 µM); that for `COc1cc(CN2CCc3ccccc3C2)cc([N+](=O)[O-])c1O`, 42.1 µg/mL (≈ 134 µM); that for `Cc1cc(SC2CCOC2=O)nc2ccccc12` (configuration not stated), 35.5 µg/mL (≈ 137 µM).

For `Cc1ccccc1NC(=S)NCCSc1ccc(Cl)cc1`, the kinetic solubility worked out at 3.3 µg/mL (≈ 9.79 µM). The result for `Cc1ccc(NC(=O)C2CC(=O)N(Cc3ccco3)C2)cc1` (configuration not stated) reads 39.7 µg/mL (≈ 133 µM); that for `COc1ccccc1C(=O)C1CCCN(Cc2cccc3nccnc23)C1` (configuration not stated), 39.5 µg/mL (≈ 109 µM); that for `O=C(c1ccc([N+](=O)[O-])cc1[N+](=O)[O-])n1cnc2ccccc21`, 22.9 µg/mL (≈ 73.3 µM). Take `Cc1nc(NC(=O)c2c(-c3ccccc3Cl)noc2C)sc1C`: the solubility (kinetic) was 13 µg/mL (≈ 37.4 µM). The result for `CSc1ccccc1NC(=O)Nc1cccc(Cl)c1C` reads 0.5 µg/mL (≈ 1.63 µM); that for `O=C(Nc1cc(Cl)ccc1N1CCOCC1)C1CC1`, more than 42.1 µg/mL. The molecule `Cc1ccccc1NC(=O)c1cc(-c2ccccc2)n(CCCN2CCOCC2)c1C` returned a kinetic solubility of 16.3 µg/mL (≈ 39 µM). Next, `FC(F)(F)c1ccc(NCCc2ccccc2)nc1`: 3.7 µg/mL (≈ 13.9 µM); `Cc1cccc(NC(=O)CCN2CCC(C)CC2)c1`: more than 39.1 µg/mL. The result for `O=C(CNS(=O)(=O)c1ccc(F)cc1)N1CCCC1` reads more than 42.9 µg/mL; that for `CC(C)[C@H](NS(=O)(=O)c1ccccc1F)C(=O)OCC(=O)Nc1cccc(S(N)(=O)=O)c1`, more than 73.1 µg/mL; that for `CCOC(=O)c1c(C)nsc1NC(=O)c1ccco1`, 1.6 µg/mL (≈ 5.71 µM).

Molecule `O=c1[nH]c(=O)n(-c2ccc(F)cc2)c(O)c1/C=C1\C=Nc2ccccc21` displayed a kinetic solubility of 1.9 µg/mL (≈ 5.44 µM).
